Source: PubChem BioAssay (NCI)
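All cell lines were grown in 96-well plates and treated with compound for 48 hours. The concentration for full growth arrest is given as TGI.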

Legend:
Experiment in all cases: DTP human tumour cell line panel, 48 h
NCI-H522 lung = test system: NCI-H522 lung
OVCAR-3 ovarian = test system: OVCAR-3 ovarian
UACC-62 melanoma = test system: UACC-62 melanoma
DMS 273 small cell lung = test system: DMS 273 small cell lung
SF-268 CNS = test system: SF-268 CNS
SNB-75 CNS = test system: SNB-75 CNS
U251 CNS = test system: U251 CNS
LOX IMVI melanoma = test system: LOX IMVI melanoma
HCT-15 colon = test system: HCT-15 colon
KM20L2 colon = test system: KM20L2 colon
OVCAR-8 ovarian = test system: OVCAR-8 ovarian
COLO 205 colon = test system: COLO 205 colon
SK-MEL-2 melanoma = test system: SK-MEL-2 melanoma
M14 melanoma = test system: M14 melanoma
UO-31 renal = test system: UO-31 renal
SK-MEL-28 melanoma = test system: SK-MEL-28 melanoma
SF-295 CNS = test system: SF-295 CNS
A498 renal = test system: A498 renal
SW-620 colon = test system: SW-620 colon
DMS 114 small cell lung = test system: DMS 114 small cell lung
786-0 renal = test system: 786-0 renal
CCRF-CEM leukemia = test system: CCRF-CEM leukemia
RPMI-8226 leukemia = test system: RPMI-8226 leukemia
HCC-2998 colon = test system: HCC-2998 colon
SK-MEL-5 melanoma = test system: SK-MEL-5 melanoma
NCI-H226 lung = test system: NCI-H226 lung
SNB-19 CNS = test system: SNB-19 CNS
HCT-116 colon = test system: HCT-116 colon
M19-MEL melanoma = test system: M19-MEL melanoma
OVCAR-4 ovarian = test system: OVCAR-4 ovarian
MALME-3M melanoma = test system: MALME-3M melanoma
HOP-62 NSCLC = test system: HOP-62 NSCLC
SK-OV-3 ovarian = test system: SK-OV-3 ovarian
IGROV1 ovarian = test system: IGROV1 ovarian
HL-60(TB) leukemia = test system: HL-60(TB) leukemia
EKVX NSCLC = test system: EKVX NSCLC
KM12 colon = test system: KM12 colon
A549 NSCLC = test system: A549 NSCLC
HT29 colon = test system: HT29 colon
SR leukemia = test system: SR leukemia
MOLT-4 leukemia = test system: MOLT-4 leukemia
LXFL 529 NSCLC = test system: LXFL 529 NSCLC
ACHN renal = test system: ACHN renal
SN12C renal = test system: SN12C renal
OVCAR-5 ovarian = test system: OVCAR-5 ovarian
TK-10 renal = test system: TK-10 renal
NCI-H23 lung = test system: NCI-H23 lung
CAKI-1 renal = test system: CAKI-1 renal
NCI-H460 lung = test system: NCI-H460 lung
UACC-257 melanoma = test system: UACC-257 melanoma
DLD-1 colon = test system: DLD-1 colon
HOP-18 NSCLC = test system: HOP-18 NSCLC
K-562 leukemia = test system: K-562 leukemia
SF-539 CNS = test system: SF-539 CNS
SNB-78 CNS = test system: SNB-78 CNS
HOP-92 NSCLC = test system: HOP-92 NSCLC

Measured: TGI

O=C1[C@H](Cl)[C@H]2c3cc4ccccc4nc3Oc3ccccc3N12
70.2 µM: DMS 114 small cell lung
65.5 µM: RPMI-8226 leukemia
88 µM: NCI-H522 lung
58 µM: HCT-116 colon
42.5 µM: UACC-62 melanoma
17.7 µM: SNB-75 CNS
72.6 µM: UO-31 renal
not listed: HOP-18 NSCLC | K-562 leukemia | SF-539 CNS | SNB-78 CNS | HOP-92 NSCLC
> 100 µM: all other assays above

CSc1nc(NC2OC(COC(C)=O)C(OC(C)=O)C(OC(C)=O)C2OC(C)=O)c(N=C(C)C(C)=O)c(=O)n1C (stereo unspecified)
not listed: NCI-H522 lung | DMS 273 small cell lung | SF-268 CNS | SNB-75 CNS | U251 CNS | LOX IMVI melanoma | HCT-15 colon | KM20L2 colon | SK-MEL-28 melanoma | A498 renal | SR leukemia | ACHN renal | SN12C renal | OVCAR-5 ovarian | NCI-H23 lung | NCI-H460 lung
> 100 µM: all other assays above
